According to patent US20060110371A1, “Control of indoleamine 2,3 deoxygenase expression and activity” (INSTITUT PASTEUR, priority 2004, published 2006):

How the values were obtained:
IDO = IDO enzymatic activity, kynurenine by colorimetric assay (Ehrlich's reagent), in monocyte-derived DCs; format: cell-based, human
Method: Determination of IDO enzymatic activity and Kynurenine assays. Tryptophan is catabolized by IDO to N-formylkynrenine, which is rapidly converted to kynurenine. Measurement of kynurenine levels is a surrogate marker for IDO activity.
Except where stated, cells were incubated for an additional 4 hours, followed by harvest of supernatant and quantitation of kynurenine by HPLC or using a colormetric assay.
Alternatively, kynurenine concentrations in the culture supernatants were measured using a colormetric assay (i.e., spectrophotometrically). 50 μl of 30% trichloroacetic acid was added to 100 μl of the culture supernatant, vortexed, and then centrifuged at 10,000 rpm for 5 minutes. A 75 μl volume of the supernatant was added to 75 μl of Ehrlich's reagent (100 mg of […], 5 ml of glacial acetic acid) in a microtiter plate well (96-well format). Optical density was measured at 480 nm filter with a Multiskan MS (Labsystems) microplate reader. The values were referred to a standard curve of defined kynurenine concentrations ([…]).
To validate this approach, the present inventors established a standard curve for quantifying kynurenine and compared the experimental values obtained using the calorimetric assay with those from the HPLC analysis.

[1] = target: human prostanoid receptors; conditions: four receptors (EP1-4) binding PGE2 with high affinity; cited from earlier work
EP2 = EP2 mRNA expression in DCs by quantitative RT-PCR; format: cell-based, human; conditions: relative to TBP
Method: (A) The present inventors monitored EP2 and EP4 mRNA expression in DCs exposed to TNFα, PGE2 or a combination of both stimuli. TBP was used as a reference for our qPCR studies as its expression levels matched that of the EP-Rs. White bars represent EP2 levels; black bars indicated EP4 expression. […] All were used at a concentration of 50 μM.
Briefly, RNA was extracted by Tri-reagent (Sigma) and cDNA was synthesized from 1-2 μg RNA using oligo dT (Roche) and Superscript reverse transcriptase (Invitrogen) according to manufacturers' instructions. […] Quantitative RT-PCR was performed using the SYBR® Green JumpStart™ Taq ReadyMix™ (Sigma) according to manufacturer's instructions. The reactions were run on a PTC200 equipped with a Chromo4™ detector (MJ Research, Mass., USA). […] All the measures were performed in duplicates and validated when the difference in Ct between the 2 measures was less than 0.3. […] The ratio gene of interest/housekeeping genes was calculated according to the formula: ratio=2^−dCt (dCT=mean Ct gene−mean Ct housekeeping). GAPDH and TBP were used to normalize for IDO and EP-receptor mRNA expression, respectively.

IDO mRNA = IDO mRNA expression by quantitative RT-PCR in monocyte-derived DCs; format: cell-based, human; conditions: for effect on IDO mRNA levels induced by PGE2 or forskolin plus TNFα: inhibitor present during 48 hrs culture
Method: Isolation and preparation of cells. Peripheral blood mononuclear cells (PBMCs), DCs and T cells were prepared as described. Briefly, buffy coats were obtained from normal donors (EFS, Rungis) and PBMCs were isolated by sedimentation over Ficoll-Hypaque (Pharmacia Biotech, Piscataway, N.J.). CD 14-enriched and CD-14-depleted fractions were prepared by the use of CD14 Miltenyi microbeads followed by magnetic cell sorting according to the manufacturers' instruction (Miltenyi Biotech, Auburn, Calif.). Immature DCs were prepared by the use of CD14+ fraction by culturing cells in the presence of GM-CSF (Berlix, Seattle, Wash.) and IL-4 (R&D Systems, Minneapolis, Minn.) for 7 days. GM-CSF (1000 U/ml) and IL-4 (500 U/ml) were added to the cultures on days 0, 2, and 4. To generate mature DCs, the cultures were transferred to fresh wells on days 6-7 and the indicated maturation stimulus was added for an additional 1-2 days. At days 6-7, >95% of the cells were CD13^−CD83^−HLA-r^lo DCs. After maturation, on days 8-9, 70-95% of the cells were of the mature […] phenotype. CD4+ and CD8+ T cells were purified from the CD14− fraction to >99% purity by positive selection with the MACS column purification system.
Quantitative analysis of IDO mRNA expression. IDO mRNA detection by real-time PCR. Briefly, RNA was extracted by Tri-reagent (Sigma) and cDNA was synthesized from 1-2 μg RNA using oligo dT (Roche) and Superscript reverse transcriptase (Invitrogen) according to manufacturers' instructions. IDO specific mRNA is quantified relative to GAPDH or TBP (TATA box Binding Protein) using the following primers: IDO forward: 5′[…]-3′ (SEQ ID NO:1), IDO reverse: 5′-[…]-3′ (SEQ ID NO:2), GAPDH forward: 5′[…]-3′ (SEQ ID NO:3), GAPDH reverse: 5′-[…]-3′ (SEQ ID NO:4) TBP forward: 5′-[…]-3′ (SEQ ID NO: 5); TBP reverse: 5′-[…]-3′ (SEQ ID NO: 6),Primers for EP receptors are described in Kamphuis et al. Invest Ophthalmol Vis Sci. 42, 3209-3215 (2001). Quantitative RT-PCR was performed using the SYBR® Green JumpStart™ Taq ReadyMix™ (Sigma) according to manufacturer's instructions. The reactions were run on a PTC200 equipped with a Chromo4™ detector (MJ Research, Mass., USA). […] The ratio gene of interest/housekeeping genes was calculated according to the formula: ratio=2^−dCt (dCT=mean Ct gene−mean Ct housekeeping). […]
Based on IDO's proposed role in immune tolerance, the present inventors evaluated the effect of different DC maturation stimuli on IDO expression. […] The present inventors first established assays to monitor IDO mRNA expression using realtime quantitative RT-PCR (qPCR), and Western blot. RNA was extracted from immature DCs (iDC) exposed to distinct maturation stimuli and IDO expression was quantified as described in the Materials and Methods.

tumors expressing IDO = conditions: mice with IDO-transfected tumors; cited from earlier work

CCCCC[C@H](O)/C=C/[C@H]1[C@H](O)CC(=O)[C@@H]1C/C=C\CCCC(=O)O [PGE2, prostaglandin E2]
IDO activity (kynurenine, colorimetric), stimulus alone (IDO; DCs treated with the stimulus alone): lacked measurable IDO activity | Kd [1]: low nM range | EP2 mRNA expression (EP2): down-regulation of EP2 | increase in transcription of IDO (IDO mRNA; PGE2 treated DCs vs iDCs): 50-200 fold

O=S(=O)(NCCNC/C=C/c1ccc(Br)cc1)c1cccc2cnccc12 [H-89]
effect on IDO mRNA levels induced by PGE2 or forskolin plus TNFα (IDO mRNA): block IDO expression

TNFα
IDO mRNA expression (in words) (IDO mRNA; iDCs exposed to the stimulus): did not upregulate IDO expression

Cn1cc(C[C@@H](N)C(=O)O)c2ccccc21 [1-MT, 1-Methyl-D-tryptophan]
protective tumor immunity (tumors expressing IDO): recovered the ability to establish protective immunity

Nc1ncnc2c1ncn2C1CCCO1 (centres unmarked) [SQ22536]
effect on IDO activity of PGE2/forskolin +/- TNFα matured DC (IDO; inhibitor added during 48 hrs maturation): blocks IDO expression/activity | optimal inhibitor concentration against forskolin-induced IDO (IDO; titrated): 1 mM | effect on IDO mRNA levels induced by PGE2 or forskolin plus TNFα (IDO mRNA): block IDO expression

CCCC1([C@H](O)C/C=C/[C@H]2[C@H](O)CC(=O)[C@@H]2CCCCCCC(=O)OC)CCC1 [butaprost, Butaprost]
IDO activity in the presence of TNFα (PGE2 replaced) (IDO; iDCs treated in combination with TNFα, 48 hrs): resulted in the induction of IDO activity
